Values of other authors, collected in patent publication US20110015245A1, “BENDAMUSTINE AMPHIPHILIC CATIONIC COMPOSITIONS” (priority 2009, published 2011).
Where a name gives a salt, the structure may show the parent alone.

Settings: 23° C.

SMILES: Cn1c(CCCC(=O)O)nc2cc(N(CCCl)CCCl)ccc21 [bendamustine hydrochloride]
- time stable in saline solution: 9 h
